# PMC9115881, “Penicillin Derivatives Inhibit the SARS-CoV-2 Main Protease by Reaction with Its Nucleophilic Cysteine” (Journal of Medicinal Chemistry, 2022)
# “Also recorded” adds a separate entry of the source.
# Assays:
# SARS-CoV-2 M^pro [1] = molecular target: T1, SARS-CoV-2 M^pro (Severe acute respiratory syndrome coronavirus 2, UniProt P0DTD1); assay: biochemical; assay type: biochemical; details: for IC50: M^pro […], 37mer substrate 2.0 μM, mean ± SD, n ≥ 2, read-out: IC50
# SARS-CoV-2 M^pro [2] = molecular target: T1, SARS-CoV-2 M^pro; assay: SPE-MS M^pro inhibition assay, 11mer peptide substrate; assay type: biochemical
# SARS-CoV-2 M^pro [3] = molecular target: T1, SARS-CoV-2 M^pro; assay: Protein-observed M^pro assay (SPE-MS), covalent modification; assay type: binding; details: M^pro 2.0 μM, inhibitor 11 or 33 μM, 45 min
# Description: Selected compounds were tested for reaction with M^pro using protein-observed MS to inform on their mechanism of inhibition (Figure 2). Initially, M^pro was incubated with a ∼6-fold excess of the penicillin sulfone ester for 45 min and then analyzed by MS. […] When the inhibitor concentration was increased to ∼17-fold to account for the possibility of modifying all 12 M^pro cysteine or other residues, only low levels of a second covalent M^pro modification by the inhibitors were observed (Figure 2A–C). No evidence for fragmentation of the inhibitors once bound to M^pro was accrued.
# Solutions of the inhibitors (100% DMSO) were dry-dispensed across 384-well polypropylene assay plates (Greiner) (for 11 or 33 μM top concentrations) using an ECHO 550 acoustic dispenser (Labcyte). DMSO was used as a negative control. Each reaction was performed in technical duplicates. The enzyme mixture (50 μL/well), containing M^pro (2.0 μM) in buffer (20 mM HEPES, pH 7.5), was dispensed across the penicillin-containing 384-well assay plates with a multidrop dispenser (Thermo Fischer Scientific). The reaction mixture was incubated for 45 min at 20 °C under an ambient atmosphere prior to analysis by SPE-MS.
# MS analyses were performed using a RapidFire RF 365 high-throughput sampling robot (Agilent) attached to an iFunnel Agilent 6550 accurate mass Q-TOF mass spectrometer using a C4 cartridge and the same parameters as described above, with the exception of the gas temperature that was reduced to 225 °C. Protein spectra were deconvoluted for the m/z range 850–1350 Da, with a resolution of 2 Da and with a 10–60 kDa cutoff using the MaxEnt1 function in Agilent MassHunter Version 7. The deconvoluted files were extracted as csv files, sorted using Enthought Canopy GUI, and normalized and plotted using GraphPad Prism 9.
# [4] = molecular target: T2, active site (Cys145) TPCK-blocked M^pro (Severe acute respiratory syndrome coronavirus 2, UniProt P0DTD1); assay: Protein-observed M^pro assay after preincubation with TPCK; assay type: binding, SARS-CoV-2; details: M^pro 2.0 μM preincubated with TPCK 10 μM for 180 min, then inhibitor 60 min
# T2 construct: employing SARS-CoV-2 M^pro (2.0 μM); made in house
# SARS-CoV-2 M^pro [5] = molecular target: T1, SARS-CoV-2 M^pro; details: earlier SPE-MS M^pro assay; cited from earlier work
# SARS-CoV-2 M^pro [6] = molecular target: T1, SARS-CoV-2 M^pro; assay: Cocrystallization with M^pro, crystal structure; details: 2.0 Å resolution, PDB 7Z59
# Excerpt: To investigate the mode of M^pro inhibition by penicillin derivatives, we carried out crystallographic studies and obtained a structure of M^pro complexed with a penicillin sulfone 20e-derived ligand following cocrystallization (C2 space group, 2.0 Å resolution; Supporting Information Figure S7). The structure was solved by molecular replacement using a reported M^pro structure (PDB ID: 6YB7([29])) as a search model. The overall fold of the structure is similar to those previously reported for M^pro (RMSD = 0.41 Å for M^pro complexed with PF-07321332 (8, nirmatrelvir; PDB ID: 7VH8);[68] Supporting Information Figure S7).
# A frozen SARS-CoV-2 M^pro solution was thawed and diluted to 6 mg/mL (using 20 mM HEPES, pH 7.5, 50 mM NaCl). β-Lactam 20e was added to the protein solution to a final concentration of 10 mM; the mixture was incubated for 2 h at ambient temperature prior to dispensing the plates. The drop composition was: 0.15 μL protein–ligand solution, 0.3 μL 11%v/v PEG 4000, 0.1 M MES, pH 6.5, and 0.05 μL M^pro crystal seed stock. A M^pro crystal seed stock was prepared by crushing M^pro crystals with a pipette tip, suspending them in 30% PEG 4000, 5%v/v DMSO, 0.1 M MES pH 6.5, and vortexing for 60 s with approximately 10 glass beads (1.0 mm diameter, BioSpec products). The reservoir solution was: 11%v/v PEG 4K, 5%v/v DMSO, 0.1 M MES, pH 6.5. […]
# [7] = Table 3, compounds 25c, 25g: 11mer peptide as substrate, M^pro […], substrate 2.0 μM, read-out: IC50
compound,measurement,setting,value
"CC1(C)[C@H](C(=O)OCc2ccccc2)N2C(=O)[C@@H](NC(=O)COc3ccccc3)[C@H]2S1(=O)=O [Compound 10, penicillin V sulfone benzyl ester]",IC50,"SARS-CoV-2 M^pro [1]; Table 1, 15 min preincubation",6.6 ± 2.7 µM
same,IC50,SARS-CoV-2 M^pro [1]; Table 3,6.6 ± 2.7 µM
same,IC50,"SARS-CoV-2 M^pro [2]; Table S1, M^pro 0.15 μM, TSAVLQ/SGFRK-NH2 2.0 μM, technical duplicates n = 2, mean ± SD, read-out: IC50 [μM] (11mer peptide)",8.7 ± 0.2 µM
same,covalent modification of M^pro by protein-observed MS,SARS-CoV-2 M^pro [3],covalent reaction with Cys145; also recorded: covalent reaction with a single nucleophilic protein residue; also recorded: clear evidence for the covalent reaction
same,covalent reaction with TPCK-pretreated M^pro by protein-observed MS,[4],reaction is ablated by pretreatment of M^pro with the active site binding inhibitor TPCK; also recorded: do not efficiently react covalently
same,"M^pro inhibition, reported result in words",SARS-CoV-2 M^pro [5],inhibits M^pro by reaction with the active site cysteine residue
"CC1(C)[C@H](C(=O)OCc2ccccc2)N2C(=O)[C@@H](NC(=O)Cc3ccccc3)[C@H]2S1(=O)=O [Compound 11, penicillin G sulfone benzyl ester]","M^pro inhibition, result in words",SARS-CoV-2 M^pro [1]; SPE-MS inhibition assay,did not inhibit M^pro
same,IC50,SARS-CoV-2 M^pro [1]; Table 3,> 50 µM
same,"M^pro inhibition, reported result in words",SARS-CoV-2 M^pro [5],inactive
"CC1(C)[C@H](C(=O)OCc2ccccc2)N2C(=O)[C@H](NC(=O)COc3ccccc3)[C@H]2S1(=O)=O [Compound 16, (6S)-penicillin V sulfone benzyl ester]",IC50,"SARS-CoV-2 M^pro [2]; Table 1, compounds 15, 16: 11mer peptide as substrate, M^pro […], substrate 2.0 μM, read-out: IC50",> 50 µM
CC1(C)[C@H](C(=O)OCc2ccc(F)cc2F)N2C(=O)[C@@H](NC(=O)COc3ccccc3)[C@H]2S1(=O)=O [Compound 20e],covalent modification seen in the crystal structure,SARS-CoV-2 M^pro [6],active site Cys145 S-acylation
C#CCOC(=O)[C@@H]1N2C(=O)[C@@H](NC(=O)COc3ccccc3)[C@H]2S(=O)(=O)C1(C)C [Compound 20q],IC50,SARS-CoV-2 M^pro [1]; Table 2,3 ± 0.4 µM
same,covalent modification of M^pro by protein-observed MS,SARS-CoV-2 M^pro [3],covalent reaction with Cys145; also recorded: covalent reaction with a single nucleophilic protein residue; also recorded: clear evidence for the covalent reaction
same,covalent reaction with TPCK-pretreated M^pro by protein-observed MS,[4],reaction is ablated by pretreatment of M^pro with the active site binding inhibitor TPCK; also recorded: do not efficiently react covalently
Cc1onc(-c2c(Cl)cccc2Cl)c1C(=O)N[C@@H]1C(=O)N2[C@@H](C(=O)OCc3ccccc3)C(C)(C)S(=O)(=O)[C@H]12 [Compound 25c],IC50,SARS-CoV-2 M^pro [2]; [7],> 50 µM
CCN1CCC(NC(=O)N[C@@H](C(=O)N[C@@H]2C(=O)N3[C@@H](C(=O)OCc4ccccc4)C(C)(C)S(=O)(=O)[C@H]23)c2ccccc2)C(=O)C1=O (some centres unmarked) [Compound 25g],IC50,SARS-CoV-2 M^pro [2]; [7],> 50 µM
"CC1(C)[C@H](C(=O)O)N2C(=O)C[C@H]2S1(=O)=O [Compound 33, sulbactam, reference compound]","M^pro inhibition, reported result in words",SARS-CoV-2 M^pro [5],inability of sulbactam to inhibit M^pro
